Results published in patent US8043827B2, “Single molecule-format real-time bioluminescence imaging probe” (National Institute of Advanced Industrial Science and …, priority 2007, dated 2011).
Read-outs that look alike come from different tables or passages of the source. Blank lines part the entries; values can stand above or below the molecule they belong to.

Tests used:
Type in all cases: cell-based
[1] = test system: ATP receptor which is an endogenous membrane receptor of COS-7 cells; test: ATP concentration-dependent luminescence change in COS-7 cells carrying pSica-5
Experimental: For example, an ATP receptor which is an endogenous membrane receptor of COS-7 cells, is stimulated by 100 mM ATP, to thereby increase the concentration of Ca^2+. CaM in the probe responds to the elevated Ca^2+ Level, and as a result, the luminescence intensity is reduced. This phenomenon depends on the ATP concentration;
pSica-5 was transfected into COS-7 cells which have been cultured on a 24-well plate, using a transfection reagent (TransIT-LT1 (Mirus)). Then, the cells were cultured for 16 hours, and then the culture medium was exchanged with 200 μL of a mixed solution of a HBSS buffer (containing 1.3 mM Ca^2+) and the substrate. The values of luminescence change obtained thereafter were monitored by a luminescent plate reader (FIG. 5). After about 5 minutes, ATP was added at different concentrations, and changes in the luminescence values obtained thereafter were monitored. […] Meanwhile, no detectable change was recognized in the luminescence values for the buffer solution itself (phosphate buffer saline; PBS).

[2] = test system: ATP receptors present on the cell membrane of MCF-7 cells; test: Intracellular Ca^2+ level increased by ATP stimulation, MCF-7 cells transfected with pSica-5; conditions: 1 mM ATP; host cell MCF-7 transfected with pSica-5
Experimental: (§1) pSica-5 was transfected into COS-7 cells or HeLa cells which have been cultured on a 24-well plate, using a transfection reagent (TransIT-LT1 (Mirus)). Then, the cells were cultured for 16 hours, and then the cell culture medium was exchanged with 200 μL of a PBS buffer solution supplemented with coeleterazine, which is the specific substrate, and 2 μM ionomycin. The values of luminescence change obtained thereafter were monitored by a luminescent plate reader (Mithras LB940; Berthold) (FIG. 7(A)). Four minutes after stabilization of the background luminescence, Ca^2+ was added to the cells on the wells at concentrations ranging from 10^−3.5 M to 10^−5.5 M. Thereafter, the changes in the luminescence values were immediately monitored by the above-mentioned luminescence plate reader. Changes in the luminescence values, which were dependent on the concentration of added Ca^2+, were monitored. Based on the values of luminescence fluctuations in this Ca^2+ concentration range, three kinds of calibration curves were produced with respect to the Ca^2+ concentration in the cultured cells. Variances in the luminescence intensity induced by the ATP concentration in COS-7, MCF-7 and HeLa cells, which had been respectively transfected with pSica-5, were measured (FIG. 7(B)). […]

[3] = test system: ATP receptors present on the cell membrane of COS-7 cells; test: Intracellular Ca^2+ level increased by ATP stimulation, COS-7 cells transfected with pSica-5; conditions: 1 mM ATP; host cell COS-7 transfected with pSica-5
Experimental: as §1

calmodulin (CaM) = target: T1, calmodulin (CaM) (Xenopus laevis, UniProt P0DP33); test: Ca^2+ concentration-dependent luminescence intensity in living cells transfected with pSica-5; conditions: for EC50: 2 μM ionomycin, PBS, read-out: 50% effective concentration (EC50) based on changes in luminescence intensities
T1 construct: (CaM; 1-150 AA; GenBank/NM001087395); expressed in transfected cells; host or cells: COS-7 or HeLa cells, pSica-5 in pcDNA3.1(+)
Experimental: PCR amplification was carried out to introduce KpnI and BamHI, which are restriction enzyme sites, into the two termini of a cDNA encoding calmodulin, which is a Xenopus laevis (African clawed frog)-derived Ca^2+ recognition protein (CaM; 1-150 AA; GenBank/NM001087395). On the other hand, as an optimal luminescent enzyme which can be linked to the CaM as a single-molecule-format probe, Gaussia princeps-derived luciferase (GLuc; 1-189 AA; GenBank/AY015993) was used. Five fragment pairs were generated by fragmentizing five sites of the cDNA of GLuc by PCR reaction, and were used in the examination of the optimal partition sites for GLuc (FIG. 3), which will be discussed in Example 2.
pSica-5 was transfected into COS-7 cells or HeLa cells which have been cultured on a 24-well plate, using a transfection reagent (TransIT-LT1 (Mirus)). Then, the cells were cultured for 16 hours, and then the cell culture medium was exchanged with 200 μL of a PBS buffer solution supplemented with coeleterazine, which is the specific substrate, and 2 μM ionomycin. The values of luminescence change obtained thereafter were monitored by a luminescent plate reader (Mithras LB940; Berthold) (FIG. 7(A)). Four minutes after stabilization of the background luminescence, Ca^2+ was added to the cells on the wells at concentrations ranging from 10^−3.5 M to 10^−5.5 M. Thereafter, the changes in the luminescence values were immediately monitored by the above-mentioned luminescence plate reader. Changes in the luminescence values, which were dependent on the concentration of added Ca^2+, were monitored. Based on the values of luminescence fluctuations in this Ca^2+ concentration range, three kinds of calibration curves were produced with respect to the Ca^2+ concentration in the cultured cells.

[4] = target: T2, GR LBD (human glucocorticoid receptor) (Homo sapiens, UniProt P04150); test: Ligand sensitivity of living cells transfected with pSimgr; conditions: steroid hormone sensitivity (FIG. 9(C))
T2 construct: expressed in transfected cells
T2 sequence (P04150 524-758 limits assumed): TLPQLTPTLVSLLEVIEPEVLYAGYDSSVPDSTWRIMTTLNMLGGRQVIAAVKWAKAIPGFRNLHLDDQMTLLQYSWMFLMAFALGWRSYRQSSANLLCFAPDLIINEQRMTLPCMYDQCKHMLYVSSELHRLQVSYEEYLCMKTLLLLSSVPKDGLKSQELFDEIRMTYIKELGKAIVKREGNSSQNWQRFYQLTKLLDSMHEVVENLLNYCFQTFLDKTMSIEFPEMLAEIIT
Source text: These plasmids were designated as pSimar and pSimgr, respectively.

SMILES: Nc1ncnc2c1ncn2[C@@H]1O[C@H](COP(=O)(O)OP(=O)(O)OP(=O)(O)O)[C@@H](O)[C@H]1O [ATP]
- changes in the luminescence values ([1]; COS-7 cells with pSica-5, 1 mM, 100 μM and 10 μM ATP, HBSS buffer containing 1.3 mM Ca^2+): stimulant dose-dependent changes
- luminescence intensity ([1]; COS-7 cells, probe with GLuc dissected at site #5, 100 mM ATP (FIG. 5 legend)): reduced
- Measured average of Ca^2+ concentrations (ave) [2]: 13 µM
- Measured average of Ca^2+ concentrations (ave) [3]: 37.4 µM

- EC50 (calmodulin (CaM); COS-7 cells transfected with pSica-5): 25 µM
- EC50 (calmodulin (CaM); HeLa cells transfected with pSica-5): 50 µM
- dissociation coefficient (Kd) between CaM and Ca^2+ (calmodulin (CaM); HeLa cells, from the luminescence values): 0.63×10^−17 M^4
SMILES: [Ca+2] [Ca^2+]

SMILES: C[C@]12CCC(=O)C=C1CC[C@@H]1[C@@H]2[C@@H](O)C[C@@]2(C)[C@H]1CC[C@]2(O)C(=O)CO [cortisol]
- sensitivity of cells transfected with pSimgr [4]: strong sensitivity
